Assay results reported in patent publication US20210261618A1 (TAIAN CITY QIHANG BIOTECHNOLOGY CO., priority 2018, published 2021).
Read-outs that look alike come from different tables or passages of the source. Where no end group is shown, it is not given here.

Key:
[1] = test system: transplanted tumor cells of human osteosarcoma MG63; conditions: xenograft tumor after 4 weeks of administration; taxol group, each dose group of sp2
Method: 2. AnnexinV-FITC cell apoptosis (annexinV)
2) 50,000-100,000 resuspended cells was taken, and centrifuged at 1000 g for 5 min. The supernatant was discarded, and 195 μl of AnnexinV-FITC binding solution was added to gently resuspend the cells.
6) Immediately flow cytometry detection was performed, wherein AnnexinV-FITC was green fluorescence, and PI was red fluorescence.

[2] = Kunming mice
Method: (§1) 20 Kunming mice, healthy adults, half male and half male, weight 20 g±2%
(§2) 4) Route of administration: tail vein injection;
(§3) 5) Administration method: animal acute toxicity test with a single dose was to study the toxic reaction of the animal within a certain period of time after the animal was given the test substance once or multiple times within 24 h. In this experiment, 3 doses within 24 h were used, namely 0.5 mL/each, 3 times/day, with an interval of 3 h;
(§4) 6) Observing and recording the reaction symptoms of the test animals for 14 consecutive days with twice a day on the day of administration and the next day, and then once a day;
(§5) 7) At the end of the experiment, the animals were killed by cervical dislocation. All the test animals were dissected to observe whether their tissues and organs were changed in volume, color, texture, etc. and recorded;

in vivo = conditions: both, Kunming, mouse, iv, 2000 mg/kgBW
Method: as §1, §2, §3, §4, §5

[3] = 1 d after 2000 mg/kgBW tail vein
[4] = 3 d after 2000 mg/kgBW tail vein
[5] = 5 d after 2000 mg/kgBW tail vein
[6] = 7 d after 2000 mg/kgBW tail vein
[7] = 9 d after 2000 mg/kgBW tail vein
[8] = 11 d after 2000 mg/kgBW tail vein
[9] = 13 d after 2000 mg/kgBW tail vein

Compound | tumor cell apoptosis compared to the model group [1] | animal weight, female (group value) [2, 3] | animal weight, male (group value) [2, 3] | animal weight, female (group value) [2, 4] | animal weight, male (group value) [2, 4] | animal weight, female (group value) [2, 5] | animal weight, male (group value) [2, 5] | animal weight, female (group value) [2, 6] | animal weight, male (group value) [2, 6] | animal weight, female (group value) [2, 7] | animal weight, male (group value) [2, 7] | animal weight, female (group value) [2, 8] | animal weight, male (group value) [2, 8] | animal weight, female (group value) [2, 9] | animal weight, male (group value) [2, 9] | maximum non-toxic dose administered intravenously ([2]; tail vein, observed 14 days) [mg/kgBW] | NOAEL at 336 h (in vivo) [mg/kg]
CC(=O)O[C@H]1C(=O)[C@@]2(C)[C@H]([C@H](OC(=O)c3ccccc3)[C@]3(O)C[C@H](OC(=O)[C@H](O)[C@@H](NC(=O)c4ccccc4)c4ccccc4)C(C)=C1C3(C)C)[C@]1(OC(C)=O)CO[C@@H]1C[C@@H]2O [taxol] | increase the tumor cell apoptosis rate (P<0.05) | – | – | – | – | – | – | – | – | – | – | – | – | – | – | – | –
RVLNGPEEEAAAPAE [sp2] | – | 26.458 | 27.565 | 28.245 | 31.131 | 29.135 | 33.177 | 30.603 | 35.699 | 31.884 | 37.611 | 33.355 | 38.017 | 33.25 | 38.456 | 2000 | 2000
